Measurements taken from US20260198498A1, “FUNGICIDAL COMPOSITIONS” (SYNGENTA CROP PROTECTION AG, priority 2022, published 2026).

Key:
[1] = test system: Monographella nivalis (Microdochium nivale); test: Example B12: Monographella nivalis (Microdochium nivale)/Liquid Culture (Foot Rot Cereals); format: cell-based; conditions: liquid culture, photometrically 4 to 5 days after application, read-out: control of Monographella nivalis
Procedure: Example B12: Monographella nivalis (Microdochium nivale)/Liquid Culture (Foot Rot Cereals)
(§1) Conidia of the fungus from cryogenic storage are directly mixed into nutrient broth (PDB potato dextrose broth). After placing a (DMSO) solution of test compound into a microtiter plate (96-well format), the nutrient broth containing the fungal spores is added. The test plates are incubated at 24° C. and the inhibition of growth is determined photometrically 4 to 5 days after application.

Pyrenophora teres = test: Example B18: Pyrenophora teres/Barley/Leaf Disc Preventative (Net Blotch); format: in vivo; conditions: foliar, barley leaf segments, inoculated 2 days after application
Procedure: Example B18: Pyrenophora teres/Barley/Leaf Disc Preventative (Net Blotch)
Barley leaf segments cv. Hasso are placed on agar in a multiwell plate (24-well format) and sprayed with the formulated test compound diluted in water. The leaf segments are inoculated with a spore suspension of the fungus 2 days after application. The inoculated leaf segments are incubated at 20° C. and 65% rh under a light regime of 12 h light/12 h darkness in a climate cabinet and the activity of a compound is assessed as disease control compared to untreated when an appropriate level of disease damage appears in untreated check leaf segments (5-7 days after application).

[2] = test system: Glomerella lagenarium (Colletotrichum lagenarium); test: Example B5: Glomerella lagenarium (Colletotrichum lagenarium)/Liquid Culture (Anthracnose); format: cell-based; conditions: Colletotrichum orbiculare, liquid culture, photometrically 3 to 4 days after application, read-out: control of Glomerella lagenarium
Procedure: Example B5: Glomerella lagenarium (Colletotrichum lagenarium)/Liquid Culture (Anthracnose)
as §1, with “measured” for “determined”, “photometrically 3 to” for “photometrically”, “4” for “4 to 5”

[3] = test system: Mycosphaerella graminicola (Septoria tritici); test: Example B21: Mycosphaerella graminicola (Septoria tritici)/Liquid Culture (Septoria Blotch); format: cell-based; conditions: Zymoseptoria tritici, liquid culture, photometrically 4-5 days after application, read-out: control of Mycosphaerella graminicola
Procedure: Example B21: Mycosphaerella graminicola (Septoria tritici)/Liquid Culture (Septoria Blotch)
as §1, with “4-5” for “4 to 5”

[4] = test system: Mycosphaerella arachidis (Cercospora arachidicola); test: Example B13: Mycosphaerella arachidis (Cercospora arachidicola)/Liquid Culture (Early Leaf Spot); format: cell-based; conditions: liquid culture, photometrically 4 to 5 days after application, read-out: control of Mycosphaerella arachidis
Procedure: Example B13: Mycosphaerella arachidis (Cercospora arachidicola)/Liquid Culture (Early Leaf Spot)
as §1

[5] = test system: Botryotinia fuckeliana (Botrytis cinerea); test: Example B2: Botryotinia fuckeliana (Botrytis cinerea)/Liquid Culture (Gray Mould); format: cell-based; conditions: liquid culture, growth inhibition photometrically 3 to 4 days after application, read-out: control of Botryotinia fuckeliana
Procedure: Example B2: Botryotinia fuceliana (Botrytis cinerea)/Liquid Culture (Gray Mould)
as §1, with “(Vogels” for “(PDB potato dextrose”, “photometrically 3 to” for “photometrically”, “4” for “4 to 5”

[6] = test system: Phaeosphaeria nodorum (Septoria nodorum); test: Example B11: Phaeosphaeria nodorum (Septoria nodorum)/Wheat/Leaf Disc Preventative (Glume Blotch); format: in vivo; conditions: Parastagonospora nodorum, foliar, wheat leaf segments, inoculated 2 days after application
Procedure: Example B11: Phaeosphaeria nodorum (Septoria nodorum)/Wheat/Leaf Disc Preventative (Glume Blotch)
Wheat leaf segments cv. Kanzler are placed on agar in a multiwell plate (24-well format) and sprayed with the formulated test compound diluted in water. The leaf disks are inoculated with a spore suspension of the fungus 2 days after application. The inoculated test leaf disks are incubated at 20° C. and 75% rh under a light regime of 12 h light/12 h darkness in a climate cabinet and the activity of a compound is assessed as percent disease control compared to untreated when an appropriate level of disease damage appears in untreated check leaf disks (5-7 days after application).

Cc1c(C2CN(C(=O)c3nnc(-c4ccc(F)cc4F)o3)Cc3ccccc32)cnn1C (stereo not shown) [X.01, [5-(2,4-difluorophenyl)-1,3,4-oxadiazol-2-yl]-[4-(1,5-dimethylpyrazol-4-yl)-3,4-dihydro-1H-isoquinolin-2-yl]methanone]
≥ 80%: inhibition of growth at 20 ppm [1] | pest or weed control at 200 ppm (Pyrenophora teres) | inhibition of growth at 20 ppm [2] | inhibition of growth at 20 ppm [3]

CCCc1nnc(C(=O)N2Cc3ccccc3C(c3cnn(C)c3C)C2)s1 (stereo not shown) [X.03, [4-(1,5-dimethylpyrazol-4-yl)-3,4-dihydro-1H-isoquinolin-2-yl]-(5-propyl-1,3,4-thiadiazol-2-yl)methanone]
≥ 80%: inhibition of growth at 20 ppm [4] | inhibition of growth at 20 ppm [2] | inhibition of growth at 20 ppm [3]

Cc1c(C2CN(C(=O)c3nnc(C4CCCCC4)s3)Cc3ccccc32)cnn1C (stereo not shown) [X.04, (5-cyclohexyl-1,3,4-thiadiazol-2-yl)-[4-(1,5-dimethylpyrazol-4-yl)-3,4-dihydro-1H-isoquinolin-2-yl]methanone]
≥ 80%: inhibition of growth at 20 ppm [1] | inhibition of growth at 20 ppm [4] | inhibition of growth at 20 ppm [2] | inhibition of growth at 20 ppm [3]

COc1ccc2c(c1)[C@@H](c1cnn(C)c1)CN(C(=O)c1cc(-c3ccc(F)cc3F)on1)[C@H]2C [X.05, [5-(2,4-difluorophenyl)isoxazol-3-yl]-[(1S,4S)-6-methoxy-1-methyl-4-(1-methylpyrazol-4-yl)-3,4-dihydro-1H-isoquinolin-2-yl]methanone]
≥ 80%: inhibition of growth at 20 ppm [1] | inhibition of growth at 20 ppm [4] | inhibition of growth at 20 ppm [5] | inhibition of growth at 20 ppm [3]

Cn1cc([C@]2(C)CN(C(=O)c3nnc(-c4ccc(F)cc4F)s3)Cc3ccccc32)cn1 [X.06, [5-(2,4-difluorophenyl)-1,3,4-thiadiazol-2-yl]-[(4R)-4-methyl-4-(1-methylpyrazol-4-yl)-1,3-dihydroisoquinolin-2-yl]methanone]
≥ 80%: pest or weed control at 200 ppm [6] | inhibition of growth at 20 ppm [1] | inhibition of growth at 20 ppm [4] | pest or weed control at 200 ppm (Pyrenophora teres) | inhibition of growth at 20 ppm [2] | inhibition of growth at 20 ppm [5] | inhibition of growth at 20 ppm [3]

Cn1cc(C2(C)CN(C(=O)c3nnc(-c4ccc(F)cc4F)s3)Cc3ccccc32)cn1 (stereo not shown) [X.07, [5-(2,4-difluorophenyl)-1,3,4-thiadiazol-2-yl]-[4-methyl-4-(1-methylpyrazol-4-yl)-1,3-dihydroisoquinolin-2-yl]methanone]
≥ 80%: inhibition of growth at 20 ppm [1] | inhibition of growth at 20 ppm [4] | inhibition of growth at 20 ppm [2] | inhibition of growth at 20 ppm [5] | inhibition of growth at 20 ppm [3]

CC(=O)c1c(C2CN(C(=O)c3cc(-c4ccc(F)cc4F)on3)Cc3ccccc32)cnn1C (stereo not shown) [X.08, 1-[4-[2-[5-(2,4-difluorophenyl)isoxazole-3-carbonyl]-3,4-dihydro-1H-isoquinolin-4-yl]-2-methyl-pyrazol-3-yl]ethanone]
≥ 80%: inhibition of growth at 20 ppm [1] | inhibition of growth at 20 ppm [4] | pest or weed control at 200 ppm (Pyrenophora teres) | inhibition of growth at 20 ppm [2] | inhibition of growth at 20 ppm [3]

COC(=O)C1c2ccccc2C(c2cnn(C)c2)CN1C(=O)c1cc(-c2ccc(F)cc2F)on1 (stereo not shown) [X.09, methyl 2-[5-(2,4-difluorophenyl)isoxazole-3-carbonyl]-4-(1-methylpyrazol-4-yl)-3,4-dihydro-1H-isoquinoline-1-carboxylate]
≥ 80%: pest or weed control at 200 ppm [6] | inhibition of growth at 20 ppm [1] | inhibition of growth at 20 ppm [4] | inhibition of growth at 20 ppm [5] | inhibition of growth at 20 ppm [3]

Cn1cc(C2CN(C(=O)c3nnc(-c4ccc(F)cc4)o3)Cc3ccccc32)cn1 (stereo not shown) [X.10, [5-(4-fluorophenyl)-1,3,4-oxadiazol-2-yl]-[4-(1-methylpyrazol-4-yl)-3,4-dihydro-1H-isoquinolin-2-yl]methanone]
≥ 80%: pest or weed control at 200 ppm [6] | inhibition of growth at 20 ppm [1] | pest or weed control at 200 ppm (Pyrenophora teres) | inhibition of growth at 20 ppm [2] | inhibition of growth at 20 ppm [3]

Cn1ncc(C2CN(C(=O)c3cc(-c4ccc(F)cc4F)on3)Cc3ccccc32)c1Cl (stereo not shown) [X.11, [4-(5-chloro-1-methyl-pyrazol-4-yl)-3,4-dihydro-1H-isoquinolin-2-yl]-[5-(2,4-difluorophenyl)isoxazol-3-yl]methanone]
≥ 80%: pest or weed control at 200 ppm [6] | inhibition of growth at 20 ppm [1] | inhibition of growth at 20 ppm [4] | pest or weed control at 200 ppm (Pyrenophora teres) | inhibition of growth at 20 ppm [2] | inhibition of growth at 20 ppm [5] | inhibition of growth at 20 ppm [3]

Cn1ncc(C2CN(C(=O)c3cc(-c4ccc(F)cc4F)on3)Cc3ccccc32)c1F (stereo not shown) [X.12, [5-(2,4-difluorophenyl)isoxazol-3-yl]-[4-(5-fluoro-1-methyl-pyrazol-4-yl)-3,4-dihydro-1H-isoquinolin-2-yl]methanone]
≥ 80%: pest or weed control at 200 ppm [6] | inhibition of growth at 20 ppm [1] | inhibition of growth at 20 ppm [4] | pest or weed control at 200 ppm (Pyrenophora teres) | inhibition of growth at 20 ppm [2] | inhibition of growth at 20 ppm [5] | inhibition of growth at 20 ppm [3]

Cc1nn(C)c(C)c1C1CN(C(=O)c2cc(-c3ccc(F)cc3F)on2)Cc2ncccc21 (stereo not shown) [X.15, [5-(2,4-difluorophenyl)isoxazol-3-yl]-[5-(1,3,5-trimethylpyrazol-4-yl)-6,8-dihydro-5H-1,7-naphthyridin-7-yl]methanone]
≥ 80%: inhibition of growth at 20 ppm [1] | inhibition of growth at 20 ppm [4] | pest or weed control at 200 ppm (Pyrenophora teres) | inhibition of growth at 20 ppm [2] | inhibition of growth at 20 ppm [3]

Cn1cc(C2CN(C(=O)c3cc(C4CCCCC4)no3)Cc3ccccc32)cn1 (stereo not shown) [X.18, (3-cyclohexylisoxazol-5-yl)-[4-(1-methylpyrazol-4-yl)-3,4-dihydro-1H-isoquinolin-2-yl]methanone]
≥ 80%: inhibition of growth at 20 ppm [1] | inhibition of growth at 20 ppm [4] | inhibition of growth at 20 ppm [2] | inhibition of growth at 20 ppm [3]

Cn1cc(C2CN(C(=O)c3nnc(-c4ccccc4)o3)Cc3ccccc32)cn1 (stereo not shown) [X.19, [4-(1-methylpyrazol-4-yl)-3,4-dihydro-1H-isoquinolin-2-yl]-(5-phenyl-1,3,4-oxadiazol-2-yl)methanone]
≥ 80%: inhibition of growth at 20 ppm [1] | inhibition of growth at 20 ppm [4] | inhibition of growth at 20 ppm [2] | inhibition of growth at 20 ppm [5] | inhibition of growth at 20 ppm [3]

Cn1cc(C2CN(C(=O)c3cc(-c4ccncc4)on3)Cc3ccccc32)cn1 (stereo not shown) [X.23, [4-(1-methylpyrazol-4-yl)-3,4-dihydro-1H-isoquinolin-2-yl]-[5-(4-pyridyl)isoxazol-3-yl]methanone]
≥ 80%: inhibition of growth at 20 ppm [3]

Cc1c(C2CN(C(=O)c3nnc(-c4ncc(F)cc4F)s3)Cc3ccccc32)cnn1C (stereo not shown) [X.28, [5-(3,5-difluoro-2-pyridyl)-1,3,4-thiadiazol-2-yl]-[4-(1,5-dimethylpyrazol-4-yl)-3,4-dihydro-1H-isoquinolin-2-yl]methanone]
≥ 80%: pest or weed control at 200 ppm [6] | inhibition of growth at 20 ppm [4] | pest or weed control at 200 ppm (Pyrenophora teres) | inhibition of growth at 20 ppm [2] | inhibition of growth at 20 ppm [3]
